Results: patent US9029451B2, “Waterborne coating compositions that include 2,2,4-trimethyl-3-oxopentanoate esters as reactive coalescents” (Eastman Chemical Company, priority 2010, dated 2015)
Like-named read-outs stand apart in the source and are kept apart here.

Key:
[1] = Water miscibility, % organic in water method (gravimetric); assay type: physicochemical; conditions: saturation point
Method: (§1) Water miscibility was measured by the following methods:
% Organic in Water Method:
The novel coalescent was added drop wise to 25 mL Milli-Q water and the mixture stirred at 1000 rpm for 10 minutes. If the coalescent dissolved, an additional drop or drops were added until traces of the organic solvent remained after the mixture had been stirred for 20 minutes. The percent organic solvent at the saturation point was determined gravimetrically.

Density, ASTM D 1475-98 = assay type: physicochemical
[2] = % non-volatile, 110° C. for 1 hour (ASTM D2369); assay type: physicochemical
Method: 2,2,4-trimethyl-3-oxopentanoate esters useful as reactive coalescents according to the invention include those having a weight percent volatile content of less than 50%, as measured according to ASTM Method D2369. This test may be conducted generally by heating the sample in a forced air oven at 110° C. for 60 minutes. The weight loss after the test is deemed to result from a loss of volatiles originally present in the sample; the percent volatile present in the original sample may then be calculated. Although the cited test can be conducted on coating compositions containing other components such as latex polymers, the values cited herein may be obtained from a sample of the coalescent itself. Thus, the weight percent volatile of a coalescent may be used herein as a yardstick to measure the amount of VOC the coalescent would contribute to the VOC of a coating composition.

[3] = MFFT testing, coalescing efficiency
Method: The MFFT samples were prepared by weighing out 20 grams (+/−0.01 g) of emulsion into 50 ml beakers. The beakers of emulsion were placed on magnetic stirrers and the coalescing aid added dropwise by pipet. The weight of the drops were determined by adding 40 drops of the coalescing aid to a tared weighing dish, then the weight per drop was calculated by taking an average of the total weight (total weight divided by 40 drops). The coalescing aid was added to the emulsion based on solids by weight. The MFFT samples were allowed to stir for approximately 15 minutes, transferred to 8 dram vials and placed onto lab rollers and allowed to equilibrate for at least 24 hours. The samples were then drawn down on the MFFT bar, which is typically set on range #2 (0° to 18° C.), and the films allowed to dry. The areas in which the films have stopped cracking are visually determined and the MFFT value is read from the scale on the instrument and converted to degrees Fahrenheit. Linear Regression was used to calculate the amount of coalescing aid required to lower the films MFFT to 40° F. In Table #5, the phr40 values (parts per hundred resin based on solids by weight) are the amount of coalescing aid required to reduce the MFFT to 40° F. A lower number indicates the coalescent is more efficient at reducing the MFFT of the film.

[4] = Hydrolytic stability in latex at 120° F., pH and Brookfield viscosity; assay type: physicochemical
Method: Approximately 100 grams of either Rhoplex AC 2508 (Rohm & Haas acrylic polymer emulsion) or Rhoplex SG-10M (Rohm & Haas acrylic polymer emulsion) was weighed out into a 4 ounce jar and 10 phr (parts per hundred resin) of the coalescing aid was added (based on percent solids of the emulsion by weight). The sample was placed on lab rollers for 24 hours before the initial pH and viscosity was taken. The viscosity was measured by a Brookfield viscometer in centipoises. The sample was then placed into a lab oven at 120° F. The pH and viscosity was checked weekly for four weeks (Tables 3 & 4). Any change in the appearance of the sample such as gel particles or phase separation was recorded weekly also.

[5] = Boiling point of coalescent; assay type: physicochemical
Method: The novel compounds were evaluated for their coalescing properties and compared to 2,2,4-trimethylpentane-1,3-diol monoisobutyrate (Texanol) and Optifilm Enhancer 400 (OE 400), two coalescents that are widely used in industry (Table 2).

[6] = Water miscibility, % water in solvent method (Karl Fischer); assay type: physicochemical; conditions: stirred approx. 48 hours
Method: as §1
% Water in Solvent Method:
Approximately 5-10 mL of the novel coalescent was slowly added to 10-15 mL Milli-Q water in an 8-dram vial. The mixture was slowly stirred for approximately 48 hours at 100-150 rpm. The organic layer was analyzed in triplicate for percent water by Karl Fischer methodology.

[7] = latex Acronal 296D, linear regression
[8] = latex Rhoplex SG-10M, linear regression
[9] = latex Ucar 379G, linear regression
[10] = Rhoplex SG-10M, 10 phr coalescent, Initial
[11] = Rhoplex SG-10M, 10 phr, 120° F., 1 week
[12] = Rhoplex SG-10M, 10 phr, 120° F., 2 weeks
[13] = Rhoplex SG-10M, 10 phr, 120° F., 3 weeks
[14] = Rhoplex SG-10M, 10 phr, 120° F., 4 weeks
[15] = Rhoplex SG-10M, compared with industry standards
[16] = latex Rhoplex HG-74P, linear regression
[17] = latex Ucar 626, linear regression
[18] = Rhoplex AC 2508, 10 phr coalescent, Initial
[19] = Rhoplex AC 2508, 10 phr, 120° F., 1 week
[20] = Rhoplex AC 2508, 10 phr, 120° F., 2 weeks
[21] = Rhoplex AC 2508, 10 phr, 120° F., 3 weeks
[22] = Rhoplex AC 2508, 10 phr, 120° F., 4 weeks
[23] = Rhoplex AC 2508, compared with industry standards

Water Miscibility % solvent in water layer [1] [%]	Density (lbs/gal) (Density, ASTM D 1475-98)	% non-volatile @ 110° C. for 1 hour [2] [%]	Boiling Point (° C. @ 760 torr) [5] [°C]	Water Miscibility % water in solvent layer [6] [%]	Viscosity (cps) [4, 18] [cps]	pH [4, 18]	Viscosity (cps) [4, 19] [cps]	pH [4, 19]	Viscosity (cps) [4, 20] [cps]	pH [4, 20]	Viscosity (cps) [4, 21] [cps]	pH [4, 21]	Viscosity (cps) [4, 22] [cps]	pH [4, 22]	Compound	phr of Coalescent required to lower MFFT to 40° F. [3, 7] [phr]	phr of Coalescent required to lower MFFT to 40° F. [3, 8] [phr]	phr of Coalescent required to lower MFFT to 40° F. [3, 9] [phr]	phr of Coalescent required to lower MFFT to 40° F. [3, 16] [phr]	phr of Coalescent required to lower MFFT to 40° F. [3, 17] [phr]	also measured
0.09	8.34	47.9	291.2	4.0	1510	8.5	1260	8.4	1230	8.4	1220	8.3	1130	8.3	CC(C)C(=O)C(C)(C)C(=O)OCC(C)(C)CO [Example 2, 3-Hydroxy-2,2-dimethylpropyl 2,2,4-trimethyl-3-oxopentanoate]	5.9	5.6	1.6	8.8	6.4	hydrolytic stability, in words [4, 23]: better than the industry standards
0.07	8.13	63.8	287.7	2.1	1430	8.5	1300	8.4	1290	8.4	1250	8.4	1130	8.3	CC(C)C(=O)C(C)(C)C(=O)OCC(C)(C)C(O)C(C)C (centres unmarked) [Example 3, 3-Hydroxy-2,2,4-trimethylpentyl 2,2,4-trimethyl-3-oxopentanoate]	6.0	5.6	1.3	9.7	8.2	hydrolytic stability, in words [4, 23]: better than the industry standards
0.00	7.80	58.7	281.6	0.03	–	–	–	–	–	–	–	–	–	–	CCCCC(CC)COCCOC(=O)C(C)(C)C(=O)C(C)C (centres unmarked) [Example 6, 2-(2-Ethylhexyloxy)ethyl 2,2,4-trimethyl-3-oxopentanoate]	5.0	4.0	1.3	–	–	Viscosity (cps) [4, 10]: 474 cps; pH [4, 10]: 8.6; Viscosity (cps) [4, 11]: 585 cps; pH [4, 11]: 8.4; Viscosity (cps) [4, 12]: 484 cps; pH [4, 12]: 8.8; Viscosity (cps) [4, 13]: 347 cps; pH [4, 13]: 8.8; Viscosity (cps) [4, 14]: 461 cps; pH [4, 14]: 8.4; hydrolytic stability, in words [4, 15]: better than the industry standards
5.0	8.75	10.6	254.8	7.6	1430	8.3	1360	7.7	1150	7.7	1060	7.6	1070	7.4	CC(C)C(=O)C(C)(C)C(=O)OCCO [Example 1, 2-Hydroxyethyl 2,2,4-trimethyl-3-oxopentanoate]	4.2	4.7	1.5	8.2	6.5	–
0.09	8.82	99.0	320.0	0.01	1380	8.4	1200	8.3	1210	8.2	1150	8.3	1100	8.2	CC(C)C(=O)C(C)(C)C(=O)OCCOCCOCCOC(=O)C(C)(C)C(=O)C(C)C [Example 4]	5.8	6.7	1.3	9.1	7.0	volatility, in words ([2]; compared with Texanol): almost completely nonvolatile; hydrolytic stability, in words [4, 23]: better than the industry standards

Compound	Water Miscibility % solvent in water layer [1] [%]	Density (lbs/gal) (Density, ASTM D 1475-98)	% non-volatile @ 110° C. for 1 hour [2] [%]	Boiling Point (° C. @ 760 torr) [5] [°C]	Water Miscibility % water in solvent layer [6] [%]	Viscosity (cps) [4, 18] [cps]	pH [4, 18]	Viscosity (cps) [4, 19] [cps]	pH [4, 19]	Viscosity (cps) [4, 20] [cps]	pH [4, 20]	Viscosity (cps) [4, 21] [cps]	pH [4, 21]	Viscosity (cps) [4, 22] [cps]	pH [4, 22]	phr of Coalescent required to lower MFFT to 40° F. [3, 7] [phr]	phr of Coalescent required to lower MFFT to 40° F. [3, 8] [phr]	phr of Coalescent required to lower MFFT to 40° F. [3, 9] [phr]	phr of Coalescent required to lower MFFT to 40° F. [3, 16] [phr]	phr of Coalescent required to lower MFFT to 40° F. [3, 17] [phr]	also measured
CCCCOCCOCCOC(=O)C(C)(C)C(=O)C(C)C [Example 5, 2-(2-Butoxyethoxy)ethyl 2,2,4-trimethyl-3-oxopentanoate]	0.02	8.02	64.0	272.1	0.40	–	–	–	–	–	–	–	–	–	–	4.2	4.6	0.9	–	–	Viscosity (cps) [4, 10]: 548 cps; pH [4, 10]: 8.6; Viscosity (cps) [4, 11]: 631 cps; pH [4, 11]: 8.3; Viscosity (cps) [4, 12]: 461 cps; pH [4, 12]: 8.7; Viscosity (cps) [4, 13]: 458 cps; pH [4, 13]: 8.6; Viscosity (cps) [4, 14]: 511 cps; pH [4, 14]: 8.2; hydrolytic stability, in words [4, 15]: better than the industry standards
2,2,4-trimethylpentane-1,3-diol monoisobutyrate [Texanol, reference compound]	0.1	7.92	0.0	–	3.0	905	8.2	685	7.9	665	8.0	631	7.8	638	7.9	4.7	4.6	0.1	8.3	6.2	Viscosity (cps) [4, 10]: 544 cps; pH [4, 10]: 8.7; Viscosity (cps) [4, 11]: 554 cps; pH [4, 11]: 8.5; Viscosity (cps) [4, 12]: 484 cps; pH [4, 12]: 8.8; Viscosity (cps) [4, 13]: 474 cps; pH [4, 13]: 8.6; Viscosity (cps) [4, 14]: 471 cps; pH [4, 14]: 8.3; Boiling Point (° C. @ 760 torr) ([5]; @ 760 torr): 255.0 °C
